Experimental data: PubChem BioAssay AID1845215 (Molecular Pharmacology Branch, DTP, NCI, 2023)

Tested on: SW 1271 complex tumor spheroid viability
Test: Anticancer human tumor SW 1271 cell line growth inhibition;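 further: spheroids exposed to agents for seven days before readout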;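 on viability, T/C: percent of DMSO vehicle control luminescence so 100% = vehicle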
Conditions: for IC50: curve of first compound; for viability, T/C: stronger effect = lower value
In short: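 Complex spheroids of malignant cells with endothelial cells and mesenchymal stem cells; agents alone or combined, from near clinical Cmax (or 10 microM if unknown) down in half-log steps, 0.25% DMSO final.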

[1] = second compound 30 pM, first compound 0.00949 µM
[2] = second compound 30 pM, first compound 0.03 µM
[3] = second compound 30 pM, first compound 0.0949 µM
[4] = second compound 30 pM, first compound 0.3 µM
[5] = second compound 30 pM, first compound 0.949 µM
[6] = second compound 30 pM, first compound 3 µM
[7] = second compound 94.9 pM, first compound 0.00949 µM
[8] = second compound 94.9 pM, first compound 0.03 µM
[9] = second compound 94.9 pM, first compound 0.0949 µM
[10] = second compound 94.9 pM, first compound 0.3 µM
[11] = second compound 94.9 pM, first compound 0.949 µM
[12] = second compound 94.9 pM, first compound 3 µM
[13] = second compound 0.0003 µM, first compound 0.00949 µM
[14] = second compound 0.0003 µM, first compound 0.03 µM
[15] = second compound 0.0003 µM, first compound 0.0949 µM
[16] = second compound 0.0003 µM, first compound 0.3 µM
[17] = second compound 0.0003 µM, first compound 0.949 µM
[18] = second compound 0.0003 µM, first compound 3 µM
[19] = second compound 0.000949 µM, first compound 0.00949 µM
[20] = second compound 0.000949 µM, first compound 0.03 µM
[21] = second compound 0.000949 µM, first compound 0.0949 µM
[22] = second compound 0.000949 µM, first compound 0.3 µM
[23] = second compound 0.000949 µM, first compound 0.949 µM
[24] = second compound 0.000949 µM, first compound 3 µM
[25] = second compound 0.003 µM, first compound 0.00949 µM
[26] = second compound 0.003 µM, first compound 0.03 µM
[27] = second compound 0.003 µM, first compound 0.0949 µM
[28] = second compound 0.003 µM, first compound 0.3 µM
[29] = second compound 0.003 µM, first compound 0.949 µM
[30] = second compound 0.003 µM, first compound 3 µM

Row | SMILES | IC50 (second compound 30 pM) [µM] | IC50 (second compound 94.9 pM) [µM] | IC50 (second compound 0.0003 µM) [µM] | IC50 (second compound 0.000949 µM) [µM] | IC50 (second compound 0.003 µM) [µM] | viability, T/C [3] [%] | viability, T/C [4] [%] | viability, T/C [5] [%] | viability, T/C [6] [%] | viability, T/C [9] [%] | viability, T/C [10] [%] | viability, T/C [11] [%] | viability, T/C [12] [%] | viability, T/C [15] [%] | viability, T/C [16] [%] | viability, T/C [17] [%] | viability, T/C [18] [%] | viability, T/C [21] [%] | viability, T/C [22] [%] | viability, T/C [23] [%] | other results
1 | CNCc1ccc(-c2cc(-c3nc(-c4ccc(S(=O)(=O)C(C)C)cc4)cnc3N)on2)cc1 + COc1cc2c(cc1O)CCNC21CSC2c3c(OC(C)=O)c(C)c4c(c3C(COC1=O)N1C(O)C3Cc5cc(C)c(OC)c(O)c5C(C21)N3C)OCO4 | 0.117 | 0.0266 | < 0.00949 | < 0.00949 | < 0.00949 | 55.5 | 18.8 | 11.3 | 0.15 | 37 | 27.9 | 14.7 | 0.12 | 38.5 | 35 | 19.5 | 0.15 | 3.92 | 2.05 | 1.95 | viability, T/C [1]: 89.6%; viability, T/C [2]: 89.7%; viability, T/C [7]: 64%; viability, T/C [8]: 42.6%; viability, T/C [13]: 28.8%; viability, T/C [14]: 35.5%; viability, T/C [19]: 5.31%; viability, T/C [20]: 7.14%; viability, T/C [24]: 0.11%; viability, T/C [25]: 0.11%; viability, T/C [26]: 0.11%; viability, T/C [27]: 0.09%; viability, T/C [28]: 0.09%; viability, T/C [29]: 0.1%; viability, T/C [30]: 0.16%
2 | Cc1sc2c(c1C)C(c1ccc(Cl)cc1)=NC(CC(=O)Nc1ccc(O)cc1)c1nnc(C)n1-2 (stereo not given) + COc1cc2c(cc1O)CCNC21CSC2c3c(OC(C)=O)c(C)c4c(c3C(COC1=O)N1C(O)C3Cc5cc(C)c(OC)c(O)c5C(C21)N3C)OCO4 | 0.145 | 0.0416 | < 0.00949 | < 0.00949 | < 0.00949 | 74.3 | 8.06 | 1.02 | 0.91 | 28.9 | 5.41 | 1.12 | 0.93 | 13.5 | 2.97 | 1.45 | 0.77 | 2.99 | 1.78 | 0.1 | viability, T/C [1]: 101%; viability, T/C [2]: 108%; viability, T/C [7]: 76.2%; viability, T/C [8]: 57.9%; viability, T/C [13]: 30.6%; viability, T/C [14]: 23.9%; viability, T/C [19]: 6.61%; viability, T/C [20]: 6.28%; viability, T/C [24]: 0.09%; viability, T/C [25]: 0.11%; viability, T/C [26]: 0.11%; viability, T/C [27]: 0.11%; viability, T/C [28]: 0.11%; viability, T/C [29]: 0.09%; viability, T/C [30]: 0.17%
3 | Cn1ncnc1[C@H]1c2n[nH]c(=O)c3cc(F)cc(c23)N[C@@H]1c1ccc(F)cc1 + COc1cc2c(cc1O)CCNC21CSC2c3c(OC(C)=O)c(C)c4c(c3C(COC1=O)N1C(O)C3Cc5cc(C)c(OC)c(O)c5C(C21)N3C)OCO4 | 0.0125 | < 0.00949 | < 0.00949 | < 0.00949 | < 0.00949 | 30.2 | 36.5 | 32.9 | 26.3 | 32.7 | 32.9 | 34.7 | 20.4 | 27.7 | 32.8 | 27.4 | 10.2 | 2.24 | 5.88 | 2.29 | viability, T/C [1]: 53.8%; viability, T/C [2]: 38.3%; viability, T/C [7]: 37.2%; viability, T/C [8]: 33.5%; viability, T/C [13]: 34.7%; viability, T/C [14]: 35%; viability, T/C [19]: 8.93%; viability, T/C [20]: 4.22%; viability, T/C [24]: 0.31%; viability, T/C [25]: 0.1%; viability, T/C [26]: 0.09%; viability, T/C [27]: 0.09%; viability, T/C [28]: 0.1%; viability, T/C [29]: 0.09%; viability, T/C [30]: 0.15%
4 | O=C(c1cc(Cc2n[nH]c(=O)c3ccccc23)ccc1F)N1CCN(C(=O)C2CC2)CC1 + COc1cc2c(cc1O)CCNC21CSC2c3c(OC(C)=O)c(C)c4c(c3C(COC1=O)N1C(O)C3Cc5cc(C)c(OC)c(O)c5C(C21)N3C)OCO4 | 1.36 | 0.206 | < 0.0949 | < 0.0949 | < 0.0949 | 87.3 | 70.1 | 57.6 | 36.5 | 54.3 | 53.6 | 31.2 | 29.9 | 28 | 35.6 | 32.8 | 31.1 | 4.23 | 5.88 | 3.15 | viability, T/C (second compound 30 pM, first compound 9.49 µM): 25.3%; viability, T/C (second compound 30 pM, first compound 30 µM): 11.8%; viability, T/C (second compound 94.9 pM, first compound 9.49 µM): 28.6%; viability, T/C (second compound 94.9 pM, first compound 30 µM): 11.7%; viability, T/C (second compound 0.0003 µM, first compound 9.49 µM): 24.2%; viability, T/C (second compound 0.0003 µM, first compound 30 µM): 3.66%; viability, T/C [24]: 1.8%; viability, T/C (second compound 0.000949 µM, first compound 9.49 µM): 1.43%; viability, T/C (second compound 0.000949 µM, first compound 30 µM): 0.13%; viability, T/C [27]: 0.19%; viability, T/C [28]: 0.19%; viability, T/C [29]: 0.12%; viability, T/C [30]: 0.13%; viability, T/C (second compound 0.003 µM, first compound 9.49 µM): 0.15%; viability, T/C (second compound 0.003 µM, first compound 30 µM): 0.21%
